Tests used:
Vero cells = assay: VZV gE expression and subcellular localization in Vero cells transfected with VZV RNA constructs (imaging); format: cell-based, African green monkeys; conditions: Table 8; VZV gE RNA, see Example 2
Experimental: Expression of VZV RNA constructs were tested in transfected Vero cells, a kidney epithelial cell culture line derived from African green monkeys. Seeded Vero cells were transfected for 24 hours at 37° C., 5% CO2 with 10 ng, 25 ng, or 50 ng of RNA constructs (Table 5) using MESSENGERMAX™ in accordance with the manufacturer's instructions. Cells were washed three times with PBS+Ca/Mg, and fixed in 4% paraformaldehyde (PFA) for 20 minutes at 25° C. Cells were washed twice with 3% bovine serum albumin (BSA) in PBS+Ca/Mg. Primary and secondary staining antibodies were diluted in 0.1% saponin in goat serum. Cells were stained with a 1:1000 dilution of primary antibody for 1 hour at 37° C., washed three times with PBS+Ca/Mg, and incubated with secondary antibody (1:500) and CELLMASK™ (1:140,000) for 45 minutes at 37° C. Cells were then stained with Dapi (1:15,000-1:20,000) for 15 minutes at 25° C., and washed three times with PBS+Ca/Mg. Cells were analyzed for VZV gE expression and subcellular localization using an Opera PHENIX® Plus High-Content Screening System at 10× or 63× magnification.

VZV gE [1] = assay: IFN-γ ELISpot of gE peptide-stimulated splenocytes from LAV-experienced C57BL/6 mice; format: in vivo; conditions: Day 48 (13 days post dose 1), 1 μg IM Day 35
Experimental: VZV RNA-LNP vaccines were tested for their ability to induce IgG and T cell responses in C57BL/6 mice. 15 mice per group were immunized in accordance with the schedule and specification in Table 11. Briefly, 10 or 15 mice per group were primed subcutaneously (SQ) on Day 0 with a live-attenuated varicella (LAV) vaccine (VARIVAX®, Merck) using a full human dose per mouse (1350 pfu), immunized intramuscularly (IM) on Day 35 day and boosted on Day 63. The “infection” with a LAV vaccine mimics exposure to VZV that humans receive when infected with VZV as children and develop chickenpox. […]
Vaccine-induced T cell response was measured following ex vivo stimulation of splenocytes with gE peptide pool (2 μg/mL of each peptide) by ELISpot and Intracellular Cytokine Staining (ICS) assay (described herein). […] T cell IFN-γ response was measured using Mabtech Mouse IFN-γ ELISpot PLUS kit (ALP) and expressed as spot forming cells (SFC) per million cells. The ICS assay measured IFN-γ-expressing cells within CD4^+ and CD8^+ T cells expressed as percentage of IFN-γ^+ cells within CD4^+ and CD8^+ T cells. […]

VZV gE [2] = assay: ICS assay of gE peptide-stimulated splenocytes from LAV-experienced C57BL/6 mice; format: in vivo; conditions: for IFN-γ+ CD4+ T cell: percentage within CD4+ T cells; for IFN-γ+ CD8+ T cell: percentage within CD8+ T cells; for gE-specific IFN-γ+ CD8+ T cell response induced or not: FIG. 26C; for gE-specific IFN-γ+ CD8+ T-cell response, increase after second/boost dose: FIG. 27B
From the text: Splenocytes were harvested from Balb/c mice on Day 34, (34 days after immunization, 6 days after boost) to assess gE-specific T cell responses induced. An Intracellular Cytokine Staining (ICS) assay was used to detect the presence of cytokines within CD4^+ or CD8^+ T cells following antigen peptide stimulation. ICS assay can detect multiple cytokines, including IFN-γ, produced in both CD4^+ and CD8^+ T cells following antigen peptide stimulation. During the ex vivo stimulation of splenocytes, reagents to block protein secretion are added to retain the synthesized cytokine to allow their detection by intracellular staining. Following stimulation, cells are stained for surface and intracellular markers to identify T cell types (CD3^+ cells for CD4 and CD8 T cells), activation markers (CD154/CD40L) and cytokines. CD4^+ T cells expressing IFN-γ, IL-2, TNFα and CD40L, and CD8^+ T cells expressing IFN-γ were assessed to evaluate gE-specific T cells.
2×10^6 splenocytes were stimulated with a 2 μg/mL gE peptide pool mix, a mix of 10 ng/ml phorbol myristate acetate (PMA) and 1 μg/mL ionomycin (positive control), or DMSO (negative control). BD GOLGISTOP™ and BD GOLGIPLUG™ were added to block protein secretion. Following incubation for 6 hours at 37° C., cells were stained for viability (10 min at 25° C.) and extracellular markers with directly labelled antibodies (20 min at 25° C.). Cells were fixed and permeabilized with BD CYTOFIX/CYTOPERM™ solution. Intracellular staining for cytokines (IFN-γ, IL-2, TNFα) and activation markers (CD154/CD40L) was performed in BD CYTOFIX/CYTOPERM™ solution (30 min at 25° C.). Cells were washed, resuspended in 2% FBS/PBS buffer and acquired on an LSRFORTESSA™. Data were analyzed by FlowJo 10.7.1. Results shown are background (media-DMSO) subtracted.
VZV RNA-LNP vaccines were tested for their ability to induce IgG and T cell responses in C57BL/6 mice. 15 mice per group were immunized in accordance with the schedule and specification in Table 11. Briefly, 10 or 15 mice per group were primed subcutaneously (SQ) on Day 0 with a live-attenuated varicella (LAV) vaccine (VARIVAX®, Merck) using a full human dose per mouse (1350 pfu), immunized intramuscularly (IM) on Day 35 day and boosted on Day 63. The “infection” with a LAV vaccine mimics exposure to VZV that humans receive when infected with VZV as children and develop chickenpox.
Mice immunized with SHINGRIX® received 1, 2.5, or 5 μg, corresponding to 1/50, 1/20, and 1/10 of the human clinical dose, respectively; mice immunized with gE_WT CO2 received 0.5 or 1 μg VZV RNA-LNP; mice immunized with ms5 CO1 received 0.5 or 1 ug VZV RNA-LNP; mice immunized with ms6 CO2 received 0.5 or 1 ug VZV RNA-LNP; and mice immunized with lyophilized gE_WT CO2 received 0.5 or 1 ug VZV RNA-LNP. Saline was administered on Day 35 and 63 to a negative control group. Sera was collected from mice on Day 35, 63 and 76 for characterization of VZV gE-binding IgG levels (LUMINEX® analyses). Spleens were harvested on Day 48 (13 days post dose 1 for selected groups) and Day 76 for cellular analysis (T cell and B cell responses).
Vaccine-induced T cell response was measured following ex vivo stimulation of splenocytes with gE peptide pool (2 μg/mL of each peptide) by ELISpot and Intracellular Cytokine Staining (ICS) assay (described herein). For ELISpot, the cytokine IFN-γ secreted by activated T cells were captured by an anti-IFN-γ antibody coated onto the polyvinylidene fluoride (PVDF) membrane of the well bottom on a microplate. The captured IFN-γ was developed into a spot by another non-competing biotinylated anti-IFN-γ secondary antibody followed by an enzymatic color reaction using streptavidin-alkaline phosphatase (ALP) conjugate and the substrate solution, nitro-blue tetrazolium and 5-bromo-4-chloro-3′-indolyphosphate (BCIP/NBT-plus) that yielded a dark purple precipitate or spot. […]

[3] = Day 48 (13 days post dose 1), 1 μg IM Day 35
[4] = Day 76 (13 days post dose 2/boost), 1 μg IM Days 35 and 63
[5] = Day 76 (13 days post dose 2/boost)

Row | Substance | VZV RNA (Vero cells) MFI (Vero cells) | gE-specific IFN-γ+ cells (ELISpot) (VZV gE [1]) [SFC per million cells] | IFN-γ+ CD4+ T cell (VZV gE [2]; [3]) [%] | IFN-γ+ CD8+ T cell (VZV gE [2]; [3]) [%] | gE-specific IFN-γ+ CD8+ T cell response induced or not (VZV gE [2]; Day 48 (13 days post dose 1)) | IFN-γ+ CD4+ T cell (VZV gE [2]; [4]) [%] | IFN-γ+ CD8+ T cell (VZV gE [2]; [4]) [%] | gE-specific IFN-γ+ CD8+ T-cell response, increase after second/boost dose (VZV gE [2]; [5])
1 | ms5 CO1: modRNA construct, ORF SEQ ID NO: 153, VZV gE with deletion of aa 582-623 | 1368 | 1068 | 0.47 | 0.05 | induced | 0.48 | 0.28 | robust increase
2 | ms6 CO2: modRNA construct, ORF SEQ ID NO: 157, VZV gE with deletion of aa 539-623, secreted | 458 | 150 | 0.09 | 0.16 | induced | 0.50 | 0.21 | robust increase

Source: patent US20230233671A1, “RNA MOLECULES” (Pfizer Inc., priority 2021, published 2023)
